Data: US20030153512A1 (priority 2000, published 2003)
Values after ≈ are worked out from the molar mass of the structure shown.

Key:
[1] = Water solubility of saturated solutions in argon-saturated water, content by HPLC; type: physicochemical; settings: saturated solution at room temperature in argon-saturated water, HPLC UV 420 nm
Description: HPLC conditions: column lichrospher-100-RP18-5 μ, 125×4 mm Running agent/gradient/flow Acetonitrile/acetic acid 0.2 and/or 2%, 1 ml/min Detection: UV 420 nm
The relevant straight calibration line was respectively determined with the individual compounds. […] The content of 20 μl each of the saturated solutions was determined by means of HPLC.

Raji cells = assay: Uptake in Raji cells by fluorescence microscopy; type: cell-based
Description: These studies were carried out by means of fluorescence microscopy, since curcumin and its two derivatives show fluorescence. […] Aliquots of the cells in medium were placed by pipetting onto poly-L-lysin-coated slides (to adhere the cells); the cells were covered with a cover glass after 30 minutes and stimulated by an appropriate filter using U.V. light.

[2] = tested on: granulocytes (PMN) from human blood; assay: Inhibition of the TPA-stimulated "oxygen burst" of granulocytes (chemiluminescence); type: cell-based; settings: 100,000 granulocytes, TPA 100 nM, luminol and/or lucigenin, CL integral over one hour
Description: These studies were carried out by means of the inhibition of the “oxygen burst” of granulocytes (PMN) from human blood according to Hergenhahn et al. (1991) J. Cancer Res. Clin. Oncol. 117, 385-395, and Bouvier, Hergenhahn et al. (1993) Carcinogenesis 14, 1573-8. The granulocyte fraction from heparinized blood is enriched by agglutination of the erythrocytes with 2.5% dextran in PBS (30 min. at room temperature), freed from residual erythrocytes by lysis and used after washing with PBS in the test. In a total volume of 1 ml, 100,000 granulocytes each are admixed with luminol and/or lucigenin and heated to 37° C. in the chemiluminescence (CL) measuring device Biolumat LB 953 (EG&G Berthold, Wildbad); the cells are then stimulated with TPA at a final concentration of 100 nM. The CL curves are tracked for one hour; the integral underneath the curve is used as a standard for chemiluminescence.
When inhibitory substances are used, a concentration-dependent inhibitory effect results which manifests itself as a late rise, reduced amplitude of the maximum and partially as an early drop of the peak.

Epstein-Barr virus = assay: Inhibition of EBV induction (reactivation) in Raji-DR-LUC cells, luciferase activity; type: cell-based; settings: 50,000 Raji-DR cells, 10 nM TPA, 72 hours
Description: The current studies were carried out with Raji-DR-LUC cells.
For this purpose, 50,000 Raji-DR cells were treated with 10 nM TPA minus/plus inhibitor (various concentrations) in a volume of 100 μl in a CO2 incubator for 72 hours. Following washing with PBS, the cells are lyzed; the luciferase activity is determined in luciferase buffer (20 mM tricins, 8 mM MgSO4, 0.1 mM EDTA, 30 mM DTE, pH 7.8) with luciferin/CoA ATP as a substrate in an always equal amount of cell lyzate. The induced luciferase activity per μg protein is determined in comparison with a calibration curve having an authentic luciferase. Inhibiting agents of EBV induction result in an induction of luciferase reduced as compared with the TPA control.

cell cultures = settings: described in the literature; cited from earlier work
[3] = Raji cells, 3 hours, 15 μM, image analysis

Row | Compound | water solubility [1] [µg/mL] | fluorescence of cells (cell-associated compound) (Raji cells; [3]) | antioxidative effect, rank order in series [2] | EBV inhibitory effect, rank order in series (Epstein-Barr virus) | factor by which cell fluorescence was reduced (versus curcumin) (Raji cells; [3]) | solubility ([1]; thermodynamic from solid) [µg/mL] | time of maximum uptake in Raji cells (Raji cells; preliminary tests) [h] | concentration in the medium at which chemopreventive effects occurred (cell cultures)
1 | 8,8′-bis-(B-D-glucopyranosyl)-curcumin [Curcumin diglucoside] | > 10700 | just visible | curcumin >>curcumin monoglucoside curcumin diglucoside | curcumin>curcumin monoglucoside>curcumin diglucoside | – | – | – | –
2 | 8-(β-D-glucopyranosyl)curcumin [Curcumin monoglucoside] | 13.2 ± 0.9 | – | curcumin >>curcumin monoglucoside curcumin diglucoside | curcumin>curcumin monoglucoside>curcumin diglucoside | 10-100 | – | – | –
3 | COc1cc(C=CC(=O)CC(=O)C=Cc2ccc(O)c(OC)c2)ccc1O [Curcumin, 1,7-bis(4-hydroxy-3-methoxyphenyl)-1,6-heptadiene-3,5-dione, reference compound] | – | very bright fluorescence | curcumin >>curcumin monoglucoside curcumin diglucoside | curcumin>curcumin monoglucoside>curcumin diglucoside | – | 4 (≈ 10.9 µM) | 2 to 3 | at least 10 μM
